Source: paper PMC3880597 (Journal of medicinal chemistry, 2013)

Assays:
[1] = Pharmacokinetics and brain distribution after single sc dose to mice; assay type: in vivo
[2] = Metabolic stability in male rat liver S9; assay type: in vitro ADME
[3] = biological target: MMP-9cat (catalytic domain of human recombinant MMP-9) (Homo sapiens, UniProt P14780); test: MMP inhibition kinetics, MMP-9cat; assay type: biochemical; conditions: slow-binding; Ki calculated from koff/kon
[4] = female, C57Bl/6J, mouse, in vivo, 25 mg/kg
[5] = female, C57Bl/6J, mouse, in vivo, sc, 25 mg/kg

Sequence of MMP-9cat (catalytic domain of human recombinant MMP-9) (P14780 107-444 limits assumed): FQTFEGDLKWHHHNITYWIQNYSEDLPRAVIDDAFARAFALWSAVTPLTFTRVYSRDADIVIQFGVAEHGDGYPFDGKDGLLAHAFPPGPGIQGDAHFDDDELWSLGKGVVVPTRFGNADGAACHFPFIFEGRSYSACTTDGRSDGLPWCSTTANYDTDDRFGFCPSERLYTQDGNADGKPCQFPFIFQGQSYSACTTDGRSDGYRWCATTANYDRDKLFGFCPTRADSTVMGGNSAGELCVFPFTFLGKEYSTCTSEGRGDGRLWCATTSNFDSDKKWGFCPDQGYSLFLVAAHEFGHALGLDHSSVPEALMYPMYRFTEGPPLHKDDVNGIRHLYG

O=S(=O)(CC1CS1)c1ccc(Oc2ccc(O)cc2)cc1 (stereo not drawn) [Compound 2]
time of maximal brain level of 2 ([1]; after 25 mg/kg sc dose of 5b): 20 min | maximal brain level of 2, molar equivalent ([1]; after 25 mg/kg sc dose of 5b, at 20 min, assuming a density of 1.0 g/mL): 1.35 ± 1.10 µM | brain level of 2 at 4 h ([1]; after 25 mg/kg sc dose of 5b, mice): 0.255 ± 0.0154 pmol/mg | maximal plasma concentration of 2 ([1]; after 25 mg/kg sc dose of 5b, mice, at 10 min): 1.24 ± 0.676 µM | maximal brain level of 2 ([1]; after 25 mg/kg sc dose of 5b, mice, at 20 min): 1.35 ± 1.10 pmol/mg tissue | t½α, plasma ([1]; compound 2 after 25 mg/kg sc dose of 5b, mice): 41.3 min | Kp [1, 4]: 1.64 | concentration at 4 h [1, 4]: 114 ± 14.7 nM | AUC(0-inf) [1, 5]: 1.17 µM·h | AUC(0-t) [1, 5]: 0.9 µM·h | Tmax [1, 5]: 10 min | half-life ([1]; female, C57Bl/6J, mouse, in vivo, sc, 25 mg/kg, t½β, brain): 533 min | half-life ([1]; female, C57Bl/6J, mouse, in vivo, sc, 25 mg/kg, t½β, plasma): 462 min | half-life ([1]; female, C57Bl/6J, mouse, in vivo, sc, terminal half-life in brain): 534 min | half-life ([1]; female, C57Bl/6J, mouse, in vivo, sc, terminal half-life in plasma): 462 min | AUC0-last, brain ([1]; mouse, in vivo, sc, 25 mg/kg): 88.8 pmol·min/mg | AUC0-∞, brain ([1]; mouse, in vivo, sc, 25 mg/kg): 129 pmol·min/mg

CCOC(=O)Oc1ccc(Oc2ccc(S(=O)(=O)CC3CS3)cc2)cc1 (stereo not drawn) [Compound 4b, Ethyl (4-(4-((thiiran-2-ylmethyl)sulfonyl)phenoxy)phenyl) carbonate]
time to complete hydrolysis to compound 2 [2]: ≤ 5 min | Ki (inhibition constant) against MMP-9cat [3]: comparable inhibition constants against MMP-9cat as ND-322

CCNC(=O)Oc1ccc(Oc2ccc(S(=O)(=O)CC3CS3)cc2)cc1 (stereo not drawn) [Compound 5b, 4-(4-((Thiiran-2-ylmethyl)sulfonyl)phenoxy)phenyl ethylcarbamate]
level of 5b in plasma or brain ([1]; after 25 mg/kg sc dose of 5b, all time points): not quantifiable

CCNC(=O)Nc1ccc(Oc2ccc(S(=O)(=O)CC3CS3)cc2)cc1 (stereo not drawn) [Compound 6b, 1-Ethyl-3-(4-(4-((thiiran-2-ylmethyl)sulfonyl)phenoxy)phenyl)urea]
elimination half-life in brain relative to plasma ([1]; 6b after 25 mg/kg sc dose of 6b): 3.3 fold | hydrolysis of 6b to give compound 3 in plasma and brain ([1]; after 25 mg/kg sc dose of 6b): not observed | time of maximal brain level of 6b ([1]; after 25 mg/kg sc dose of 6b): 10 min

CCOC(=O)Nc1ccc(Oc2ccc(S(=O)(=O)CC3CS3)cc2)cc1 (stereo not drawn) [Compound 7b, Ethyl (4-(4-((thiiran-2-ylmethyl)sulfonyl)phenoxy)phenyl)carbamate]
Ki (inhibition constant) against MMP-9cat [3]: comparable inhibition constants against MMP-9cat as ND-322
